Patent publication US6653280B2, “Antifungal polypeptide AlyAFP from Alyssum and methods for controlling plant pathogenic fungi” (Monsanto Technology LLC, priority 1996, dated 2003)
Like-named read-outs stand apart in the source and are kept apart here.

Assays:
Verticillium dahliae [1] = assay: Verticillium wilt disease test on transgenic potato plants expressing the polypeptide; assay type: in vivo, potato (Solanum tuberosum var. Russet Burbank); conditions: for Verticillium wilt resistance conferred to potato plants: expression levels as high as 25 μg/g fresh leaf tissue; for Disease Severity (%) (58 Days Post Inoc.): average of three replicates; for difference in disease progress between expressing lines and control lines: rated at 49, 58, and 64 days post inoculation; for Disease Severity (%) (44 Days Post Inoc.): average of 3 replicates
Description: Conidia and mycelia of a 2-3 week old culture of virulent Verticillium dahliae were used to inoculate a PDA (potatoes, 200 g/l; Bacto dextrose, 20 g/l; and Bacto agar, 15 g/l ) Petri plate. This culture was allowed to grow at 22° C. for 4-5 days. Conidia were then harvested by washing the culture plate with sterile distilled water and filtering the liquid through two layers of cheesecloth. The conidial spore concentration was determined using a hemacytometer, and adjusted to 1×10^6 conidia/ml with sterile distilled water.
Transgenic and non-transgenic potato plants were grown from stem cuttings under sterile conditions as described above in plastic cups containing 50 mls of PM-agar medium. When plants were about 1-2 inches tall, they were removed from the medium and their roots were dipped in the spore suspension (Joaquim et al. (1991) Phytopathology 81:552-558). The inoculated plants were then transplanted into 6-inch pots containing Metro-Mix 350. After transplanting, each plant received an additional 5mls of the spore suspension on the soil surface around the base of the stem. The pots were placed in a growth chamber under the following conditions: temperature at 20° C., light intensity at 320 μEinstein/sec/cm^2, 12 hr day/12 hr night light cycle, subirrigation with water 2 times/day, 20 minutes soaking each time. Four weeks after inoculation, the plants were scored for disease severity on a scale of 0-100% (Horsfall et al. (1945) Phytopathology 35:655). To develop a disease progress curve over time, plants were rated once a week for at least 8 weeks.
Table 3 summarizes the protein expression level in each of the lines, and the disease severity rating of each individual line in the test determined at 44 days post inoculation. The disease severity rating was the average of 3 replicates. For convenience, the same disease data are also presented as a bar graph in FIG. 11. The order of appearance of each potato line in Table 3 (from top to bottom) and in FIG. 11 (from left to right) is the same.
In this test, disease symptoms appeared in the experimental and control plants at approximately 49 days post inoculation. Disease progress was rated at 49, 58, and 64 days post inoculation. […] The disease severity rating was the average of three replicates. Table 4 summarizes the protein expression level in each of the lines, and the disease severity rating of each individual line determined at 58 days post inoculation. For convenience, the same disease data are also presented as a bar graph in FIG. 12. The order of appearance of each potato line in Table 4 (from top to bottom) and in FIG. 12 (from left to right) is the same.

Fusarium culmorum [2] = conditions: F. culmorum, comparison peptides disclosed in WO 93/05153, cited from earlier work
Verticillium dahliae [3] = conditions: V. dahliae, comparison peptides disclosed in WO 93/05153, cited from earlier work
Verticillium dahliae [4] = assay: Antifungal activity: inhibition of fungal hyphal growth (microscopy); assay type: cell-based; conditions: V. dahliae
Description: (§1) The antifungal activity of AlyAFP can be expressed as the concentration thereof in μg/ml required to cause 50% inhibition of fungal hyphal growth (IC50). Percent fungal hyphal growth inhibition is defined as 100×the ratio of the average hyphae length in the test sample culture divided by the average hyphae length in the control culture in which buffer is added in place of the polypeptide sample.
(§2) The antifungal activity of AlyAFP was determined by measuring the inhibition of fungal hyphal length of a number of different fungi in the presence of this polypeptide under an inverted microscope. Fungal spores (2×10^4 spores/ml) were allowed to germinate for 5 to 15 hours, depending on the fungus used in the test, in 50 μl of double strength testing medium. […] For experiments on the antagonistic effect of cations, CaCl2 and KCl were added to final concentrations of 1 mM and 50 mM, respectively. This salt-supplemented medium is refered to as “high salt medium,” and the original medium is refered to as “low salt medium.” After spore germination, 50 μl of a filter-sterilized solution of polypeptide in distilled water were added to the testing well containing the germinated spores, and the mixture was incubated for 15 to 24 hours at 24° C. […] Polypeptide concentrations were determined using the BCA protein assay kit obtained from Pierce (Rockford, Ill.).

[5] = ELISA of antifungal polypeptide expression in leaves of transgenic potato plants; parameters: species or system potato (Solanum tuberosum var. Russet Burbank); conditions: 3 transgenic potato lines
Description: Leaf samples (20 to 100 mg) were taken from transgenic plants grown to 1 to 2 inches in height. The leaf samples were ground in PBST buffer (15 μl/mg tissue) containing 1 mM KH2PO4, 10 mM Na2HPO4, 137 mM NaCl, 2.7 mM KCl, pH 7.4, and 0.05% Tween-20, and allowed to sit at 4° C. overnight. After centrifugation, 100 μl of the supernatant were used in an ELISA assay. Polyclonal antibodies against Rs-AFP1 polypeptide (SEQ ID NO:18) were prepared by Pocono Rabbit Farm (Pocono, Pa.). Wells of a Nunc Maxi-sorp 96 well plate (Nunc #4-39454) were coated with antibodies against Rs-AFP1 polypeptide by adding 100 μl of antibodies (1 mg IgG/ml) diluted 1:200 in coating buffer containing 1.59 g Na2CO3 and 2.93 g NaHCO3 per liter distilled water, pH 9.6, and incubating at 4° C. overnight. The coating solution was then removed from the wells, which were then washed three times with PBST. One hundred μl of leaf supernatant or appropriately diluted polypeptide standards in PBST supplemented with 0.2% (w/v) BSA, fraction V (Sigma, St. Louis) were added to the wells. The concentration of each polypeptide in extracts from transgenic plants was determined from standard curves constructed using varying amounts of the respective purified polypeptide. […] The optical density at 405 nm was determined using a Thermo-max microplate reader (Molecular Devices, Menlo Park, Calif.). […]

Fusarium culmorum [6] = conditions: F. culmorum
Description: as §1, §2

[7] = 58 days post inoc., average of the 5 expressing lines marked +, vector control 60.0
[8] = high salt medium (1 mM CaCl2, 50 mM KCl)

Substance: Rs-AFP2: small cysteine-rich antifungal protein isolated from radish seed (WO 93/05153), SEQ ID NO:19 (QKLCQRPSGTWSGVCGNNNACKNQCIRLEKARHGSCNYVFPAHKCICYFPC)
- Average Dis. Sev. (Verticillium dahliae [1]; [7]): 64.0%
- Verticillium wilt resistance conferred to potato plants (Verticillium dahliae [1]): did not provide any significant level of Verticillium wilt resistance
- Disease Severity (%) (58 Days Post Inoc.) (Verticillium dahliae [1]; potato line 13500, 10.8 μg AFP/g tissue): 82.5%
- Disease Severity (%) (58 Days Post Inoc.) (Verticillium dahliae [1]; potato line 13501, 25.2 μg AFP/g tissue): 76.3%
- Disease Severity (%) (58 Days Post Inoc.) (Verticillium dahliae [1]; potato line 13503, 25.1 μg AFP/g tissue): 53.8%
- Disease Severity (%) (58 Days Post Inoc.) (Verticillium dahliae [1]; potato line 13531, 16.2 μg AFP/g tissue): 72.5%
- Disease Severity (%) (58 Days Post Inoc.) (Verticillium dahliae [1]; potato line 13532, 17.5 μg AFP/g tissue): 35.0%
- difference in disease progress between expressing lines and control lines (Verticillium dahliae [1]): No differences
- IC50 (Fusarium culmorum [2]; high salt): 5 µg/mL
- IC50 (Fusarium culmorum [2]; low salt): 2 µg/mL
- IC50 (Verticillium dahliae [3]; high salt): 50 µg/mL
- IC50 (Verticillium dahliae [3]; low salt): 1.5 µg/mL

Substance: AlyAFP: antifungal polypeptide of 50 amino acids obtainable from flowers of Alyssum, SEQ ID NO:2 (RLCERPSGTWSGVCGNNNACRNQCRNLERAEHGSCNYVFPAHKCICYFPC)
- IC50 (Verticillium dahliae [4]; [8]): <5 µg/mL
- IC50 (Verticillium dahliae [4]; low salt medium): <1 µg/mL
- Average Dis. Sev. (Verticillium dahliae [1]; 44 days post inoc., average of the 8 high and medium expressing lines marked +, vector control 39.2): 14.9%
- disease severity less than that of the vector control (Verticillium dahliae [1]; average of 8 high and medium expressing lines vs average of 3 vector control lines, 44 days): 62%
- disease severity less than that of the vector control (Verticillium dahliae [1]; best high expressing lines #17575 and #17587, 44 days): 82%
- disease resistance as compared to the vector controls (Verticillium dahliae [1]; low expressing lines (0.9 to 1.1 μg/g fresh leaf tissue)): did not exhibit any significant level of disease resistance
- Disease Severity (%) (44 Days Post Inoc.) (Verticillium dahliae [1]; potato line 17575, 14.9 μg AFP/g tissue): 7.5%
- Disease Severity (%) (44 Days Post Inoc.) (Verticillium dahliae [1]; potato line 17578, 12.7 μg AFP/g tissue): 15%
- Disease Severity (%) (44 Days Post Inoc.) (Verticillium dahliae [1]; potato line 17580, 0.9 μg AFP/g tissue): 33.3%
- Disease Severity (%) (44 Days Post Inoc.) (Verticillium dahliae [1]; potato line 17581, 9.2 μg AFP/g tissue): 24.3%
- Disease Severity (%) (44 Days Post Inoc.) (Verticillium dahliae [1]; potato line 17587, 9.6 μg AFP/g tissue): 6.3%
- Disease Severity (%) (44 Days Post Inoc.) (Verticillium dahliae [1]; potato line 17589, 1.1 μg AFP/g tissue): 43.8%
- Disease Severity (%) (44 Days Post Inoc.) (Verticillium dahliae [1]; potato line 17592, 2.6 μg AFP/g tissue): 11.8%
- Disease Severity (%) (44 Days Post Inoc.) (Verticillium dahliae [1]; potato line 17593, 2.6 μg AFP/g tissue): 17.3%
- Disease Severity (%) (44 Days Post Inoc.) (Verticillium dahliae [1]; potato line 17595, 5.2 μg AFP/g tissue): 21%
- Disease Severity (%) (44 Days Post Inoc.) (Verticillium dahliae [1]; potato line 17618, 2.6 μg AFP/g tissue): 16.3%
- expression level at which potato plants exhibit resistance to Verticillium wilt (Verticillium dahliae [1]; transgenic potato plants): ≥ 2.6 μg/g fresh leaf tissue
- expression level, medium expressers [5]: 2.6 μg AlyAFP/g fresh leaf tissue
- IC50 (Fusarium culmorum [6]; [8]): <10 µg/mL
- IC50 (Fusarium culmorum [6]; low salt medium): <2 µg/mL

Substance: Rs-AFP1: small cysteine-rich antifungal protein isolated from radish seed (WO 93/05153), SEQ ID NO:18 (QKLCERPSGTWSGVCGNNNACKNQCINLEKARHGSCNYVFPAHKCICYFPC)
- Average Dis. Sev. (Verticillium dahliae [1]; [7]): 59.8%
- Verticillium wilt resistance conferred to potato plants (Verticillium dahliae [1]): did not provide any significant level of Verticillium wilt resistance
- Disease Severity (%) (58 Days Post Inoc.) (Verticillium dahliae [1]; potato line 15117, 9.7 μg AFP/g tissue): 47.5%
- Disease Severity (%) (58 Days Post Inoc.) (Verticillium dahliae [1]; potato line 15120, 8.0 μg AFP/g tissue): 50.0%
- Disease Severity (%) (58 Days Post Inoc.) (Verticillium dahliae [1]; potato line 15124, 26 μg AFP/g tissue): 56.3%
- Disease Severity (%) (58 Days Post Inoc.) (Verticillium dahliae [1]; potato line 15143, 18.3 μg AFP/g tissue): 78.8%
- Disease Severity (%) (58 Days Post Inoc.) (Verticillium dahliae [1]; potato line 15154, 5.2 μg AFP/g tissue): 66.3%
- difference in disease progress between expressing lines and control lines (Verticillium dahliae [1]): No differences
- IC50 (Fusarium culmorum [2]; high salt): 70 µg/mL
- IC50 (Fusarium culmorum [2]; low salt): 5 µg/mL
- IC50 (Verticillium dahliae [3]; high salt): >100 µg/mL
- IC50 (Verticillium dahliae [3]; low salt): 5 µg/mL
